Results as given in patent US20250206724A1, “SUBSTITUTED 3-AMINO INDAZOLE DERIVATIVES AS KINASE INHIBITORS” (NERVIANO MEDICAL SCIENCES S.R.L., priority 2022, published 2025).
Counter-ions that a name gives are not always drawn.

target: T1, CDK11A (Homo sapiens, UniProt Q9UQ88); conditions: displacement of SNS-032-Atto590 probe (0.002 μM) from CDK11A-p58 (0.032 uM), fluorescence polarization
T1 sequence (Q9UQ88 346-783): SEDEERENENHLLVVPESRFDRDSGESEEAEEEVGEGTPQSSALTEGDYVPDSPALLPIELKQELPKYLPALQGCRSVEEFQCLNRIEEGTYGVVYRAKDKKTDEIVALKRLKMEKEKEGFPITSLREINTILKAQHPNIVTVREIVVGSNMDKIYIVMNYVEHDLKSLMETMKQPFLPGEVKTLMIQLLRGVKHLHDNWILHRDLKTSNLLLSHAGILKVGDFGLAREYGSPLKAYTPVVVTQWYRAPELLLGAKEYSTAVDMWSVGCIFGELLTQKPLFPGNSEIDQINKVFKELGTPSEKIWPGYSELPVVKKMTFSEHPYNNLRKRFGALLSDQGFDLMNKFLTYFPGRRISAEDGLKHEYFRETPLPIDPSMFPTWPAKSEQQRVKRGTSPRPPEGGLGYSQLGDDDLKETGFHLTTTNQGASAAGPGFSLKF
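Further: compound preincubated 30 min with CDK11A-p58, then probe added and polarization (mP) read 15 min later, 0% displacement is probe plus enzyme, 100% is probe alone.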

First: CN1CCC(C(=O)Nc2n[nH]c3ccc(-c4ccc(O)c(C#N)c4)cc23)CC1 [compound 135, N-[5-(3-Cyano-4-hydroxyphenyl)-1H-indazol-3-yl]-1-methylpiperidine-4-carboxamide hydrochloride]
Second: CN1CCC(C(=O)Nc2n[nH]c3ccc(-c4cc(F)ccc4C#N)cc23)CC1 [compound 136, N-[5-(2-Cyano-5-fluorophenyl)-1H-indazol-3-yl]-1-methylpiperidine-4-carboxamide hydrochloride]
The DC50 of the first is 1.6-fold higher: 786 nM for the first, 486 nM for the second.

Compared with `O=C(Nc1n[nH]c2ccc(-c3c(Cl)cccc3Cl)cc12)C1CCN(C2CC2)CC1` [compound 158, 1-Cyclopropyl-N-[5-(2,6-dichlorophenyl)-1H-indazol-3-yl]piperidine-4-carboxamide hydrochloride], `CN1CCC(C(=O)Nc2n[nH]c3ccc(-c4c(Cl)cccc4Cl)cc23)CC1` [cpd 68, N-[5-(2,6-Dichlorophenyl)-1H-indazol-3-yl]-1-methylpiperidine-4-carboxamide] is 8.2-fold lower in DC50: 695 nM for the first, 85 nM for the second.

`O=C(Nc1n[nH]c2ccc(-c3cc(OC(F)(F)F)ccc3F)cc12)[C@@H]1CCCNC1` [cpd 23, (3R)-N-{5-[2-Fluoro-5-(trifluoromethoxy)phenyl]-1H-indazol-3-yl}piperidine-3-carboxamide hydrochloride] and `CCOc1ccc(F)c(-c2ccc3[nH]nc(NC(=O)[C@@H]4CCCNC4)c3c2)c1` [cpd 22, (3R)-N-[5-(5-Ethoxy-2-fluorophenyl)-1H-indazol-3-yl]piperidine-3-carboxamide hydrochloride] are within 1.5-fold of each other in DC50: 75 nM for the first, 55 nM for the second.

`CCCCN1CCC(C(=O)Nc2n[nH]c3ccc(-c4c(Cl)cccc4Cl)cc23)CC1` [cpd 69, 1-Butyl-N-[5-(2,6-dichlorophenyl)-1H-indazol-3-yl]piperidine-4-carboxamide] and `CC(C)CN1CCC(C(=O)Nc2n[nH]c3ccc(-c4c(Cl)cccc4Cl)cc23)CC1` [cpd 70, N-[5-(2,6-Dichlorophenyl)-1H-indazol-3-yl]-1-(2-methylpropyl)piperidine-4-carboxamide] are within 1.5-fold of each other in DC50: 122 nM for the first, 136 nM for the second.

Going from `CC(C)(C)COC(=O)n1nc(NC(=O)[C@@H]2CCCNC2)c2cc(-c3cc(C#N)ccc3Cl)ccc21` [cpd 212, 2,2-Dimethylpropyl 5-(2-chloro-5-cyanophenyl)-3-{[(3R)-piperidin-3-ylcarbonyl]amino}-1H-indazole-1-carboxylate hydrochloride] to `CC(C)(C)COC(=O)n1nc(NC(=O)[C@@H]2CCC(C)(C)NC2)c2cc(-c3cc(C#N)ccc3Cl)ccc21` (single isomer, unassigned) [cpd 224, 2,2-Dimethylpropyl 5-(2-chloro-5-cyanophenyl)-3-({[(3+)-6,6-dimethylpiperidin-3-yl]carbonyl}amino)-1H-indazole-1-carboxylate hydrochloride], the DC50 falls from 821 nM to 528 nM (1.6-fold).

`O=C(Nc1n[nH]c2ccc(-c3cc(Cl)ccc3F)cc12)[C@@H]1CCCNC1` [cpd 21, (3R)-N-[5-(5-Chloro-2-fluorophenyl)-1H-indazol-3-yl]piperidine-3-carboxamide hydrochloride] and `O=C(Nc1n[nH]c2ccc(-c3cc(Cl)ccc3Cl)cc12)[C@@H]1CCCNC1` [cpd 13, (3R)-N-[5-(2,5-Dichlorophenyl)-1H-indazol-3-yl]piperidine-3-carboxamide hydrochloride] are within 1.5-fold of each other in DC50: 46 nM for the first, 36 nM for the second.

First: CC(OC(=O)C(C)C)OC(=O)N1CCC[C@@H](C(=O)Nc2n[nH]c3ccc(-c4cc(C#N)ccc4Cl)cc23)C1 (stereo partly drawn) [compound 190, 1-[(2-Methylpropanoyl)oxy]ethyl (3R)-3-{[5-(2-chloro-5-cyanophenyl)-1H-indazol-3-yl]carbamoyl}piperidine-1-carboxylate]
Second: NC(=O)c1ccc(Cl)c(-c2ccc3[nH]nc(NC(=O)C4CCCNC4)c3c2)c1 (centres unmarked) [cpd 9, N-[5-(5-Carbamoyl-2-chlorophenyl)-1H-indazol-3-yl]piperidine-3-carboxamide hydrochloride]
The DC50 of the first is 5.4-fold higher: 706 nM for the first, 131 nM for the second.

`CN1CCC(C(=O)Nc2n[nH]c3ccc(-c4ccc(O)cc4Cl)cc23)CC1` [cpd 111, N-[5-(2-Chloro-4-hydroxyphenyl)-1H-indazol-3-yl]-1-methylpiperidine-4-carboxamide hydrochloride] and `CN1CCC(C(=O)Nc2n[nH]c3ccc(-c4ccc(N)cc4Cl)cc23)CC1` [cpd 107, N-[5-(4-Amino-2-chlorophenyl)-1H-indazol-3-yl]-1-methylpiperidine-4-carboxamide dihydrochloride] are within 1.5-fold of each other in DC50: 141 nM for the first, 200 nM for the second.

Compared with `CN1CCC(C(=O)Nc2n[nH]c3ccc(-c4ccc(N)cc4)cc23)CC1` [cpd 90, N-[5-(4-Aminophenyl)-1H-indazol-3-yl]-1-methylpiperidine-4-carboxamide dihydrochloride], `CN1CCC(C(=O)Nc2n[nH]c3ccc(-c4ccc(F)cc4)cc23)CC1` [cpd 87, N-[5-(4-Fluorophenyl)-1H-indazol-3-yl]-1-methylpiperidine-4-carboxamide hydrochloride] is 1.7-fold higher in DC50: 592 nM for the first, 988 nM for the second.

`Cc1ccc(-c2ccc3[nH]nc(NC(=O)C4CCN(C)CC4)c3c2)c(F)c1` [cpd 119, N-[5-(2-Fluoro-4-methylphenyl)-1H-indazol-3-yl]-1-methylpiperidine-4-carboxamide hydrochloride] and `CN1CCC(C(=O)Nc2n[nH]c3ccc(-c4ccc(F)cc4F)cc23)CC1` [compound 124, N-[5-(2,4-Difluorophenyl)-1H-indazol-3-yl]-1-methylpiperidine-4-carboxamide hydrochloride] are within 1.5-fold of each other in DC50: 665 nM for the first, 637 nM for the second.

First: COC(=O)c1ccc(Cl)c(-c2ccc3[nH]nc(NC(=O)[C@@H]4CCCNC4)c3c2)c1 [cpd 29, Methyl 4-chloro-3-(3-{[(3R)-piperidin-3-ylcarbonyl]amino}-1H-indazol-5-yl)benzoate hydrochloride]
Second: CC(=O)c1ccc(F)c(-c2ccc3[nH]nc(NC(=O)C4CCCNC4)c3c2)c1 (centres unmarked) [cpd 16, N-[5-(5-Acetyl-2-fluorophenyl)-1H-indazol-3-yl]piperidine-3-carboxamide hydrochloride]
The DC50 of the first is 3-fold lower: 24 nM for the first, 72 nM for the second.

`CN1CCC(C(=O)Nc2n[nH]c3ccc(-c4ccccc4Cl)cc23)CC1` [cpd 85, N-[5-(2-Chlorophenyl)-1H-indazol-3-yl]-1-methylpiperidine-4-carboxamide hydrochloride] and `CN1CCC(C(=O)Nc2n[nH]c3ccc(-c4cc(CO)ccc4Cl)cc23)CC1` [cpd 77, N-{5-[2-Chloro-5-(hydroxymethyl)phenyl]-1H-indazol-3-yl}-1-methylpiperidine-4-carboxamide p-toluensulfonate] are within 1.5-fold of each other in DC50: 393 nM for the first, 446 nM for the second.

Compared with `C[C@H]1CC[C@@H](C(=O)Nc2n[nH]c3ccc(-c4c(Cl)cccc4Cl)cc23)CN1` [compound 177, (3R,6S)-N-[5-(2,6-Dichlorophenyl)-1H-indazol-3-yl]-6-methylpiperidine-3-carboxamide trifluoroacetate], `O=C1CCC(C(=O)Nc2n[nH]c3ccc(-c4c(Cl)cccc4Cl)cc23)CN1` (centres unmarked) [cpd 27, N-[5-(2,6-Dichlorophenyl)-1H-indazol-3-yl]-6-oxopiperidine-3-carboxamide] is 6.3-fold higher in DC50: 54 nM for the first, 338 nM for the second.

First: O=C(Nc1n[nH]c2ccc(-c3c(Cl)cccc3Cl)cc12)C12CCN(CC1)CC2 [compound 160, N-[5-(2,6-Dichlorophenyl)-1H-indazol-3-yl]-1-azabicyclo[2.2.2]octane-4-carboxamide]
Second: O=C(CC1CCNCC1)Nc1n[nH]c2ccc(-c3c(Cl)cccc3Cl)cc12 [compound 163, N-[5-(2,6-Dichlorophenyl)-1H-indazol-3-yl]-2-(piperidin-4-yl)acetamide hydrochloride]
The DC50 of the first is 2.6-fold lower: 221 nM for the first, 576 nM for the second.

`Cc1ccc(-c2ccc3[nH]nc(NC(=O)[C@@H]4CCCNC4)c3c2)c(Cl)c1` [cpd 8, (3R)-N-[5-(2-Chloro-4-methylphenyl)-1H-indazol-3-yl]piperidine-3-carboxamide hydrochloride] and `O=C(Nc1n[nH]c2ccc(-c3ccc(Cl)cc3C(F)(F)F)cc12)[C@@H]1CCCNC1` [cpd 45, (3R)-N-{5-[4-Chloro-2-(trifluoromethyl)phenyl]-1H-indazol-3-yl}piperidine-3-carboxamide hydrochloride] are within 1.5-fold of each other in DC50: 125 nM for the first, 88 nM for the second.

Going from `N#Cc1ccc(Cl)c(-c2ccc3[nH]nc(NC(=O)[C@@H]4CCC5(CCCCC5)NC4)c3c2)c1` (single isomer, unassigned) [compound 207, (3-)-N-[5-(2-Chloro-5-cyanophenyl)-1H-indazol-3-yl]-1-azaspiro[5.5]undecane-3-carboxamide] to `Cc1cc(C#N)ccc1-c1ccc2[nH]nc(NC(=O)C3CCN(C)CC3)c2c1` [cpd 113, N-[5-(4-Cyano-2-methylphenyl)-1H-indazol-3-yl]-1-methylpiperidine-4-carboxamide hydrochloride], the DC50 rises from 229 nM to 534 nM (2.3-fold).

Compared with `COC(=O)c1cc(-c2ccc3[nH]nc(NC(=O)[C@@H]4CCNC4)c3c2)c(Cl)cc1N` [cpd 54, Methyl 2-amino-4-chloro-5-(3-{[(3R)-pyrrolidin-3-ylcarbonyl]amino}-1H-indazol-5-yl)benzoate dihydrochloride], `CN1CCC(C(=O)Nc2n[nH]c3ccc(-c4c(F)cc(O)cc4F)cc23)CC1` [compound 138, N-[5-(2,6-Difluoro-4-hydroxyphenyl)-1H-indazol-3-yl]-1-methylpiperidine-4-carboxamide trifluoroacetate] is 3.7-fold higher in DC50: 102 nM for the first, 376 nM for the second.

Compound `NCCCN1CCC(C(=O)Nc2n[nH]c3ccc(-c4c(F)cccc4Cl)cc23)CC1` [cpd 66, 1-(3-Aminopropyl)-N-[5-(2-chloro-6-fluorophenyl)-1H-indazol-3-yl]piperidine-4-carboxamide dihydrochloride] has a DC50 of 58 nM.
